Test results as given in ChEMBL document CHEMBL1143632, “Ligand-based prediction of active conformation by 3D-QSAR flexibility descriptors and their application in 3+3D-QSAR models” (J Med Chem, 2005).
Where a SMILES comes first, the peptide text is derived from it. [ ]: non-standard residue; d: D form. Dmt = Cc1cc(O)cc(C)c1C[C@H](N)C(=O)O

target: T1, Mu-type opioid receptor (Rattus norvegicus, UniProt P33535); experiment: Inhibition of DAMGO (Tyr-[D-Ala]-Gly-[NMe-Phe]-Gly-ol) binding to rat brain opioid receptor
T1 sequence (P33535 whole entry): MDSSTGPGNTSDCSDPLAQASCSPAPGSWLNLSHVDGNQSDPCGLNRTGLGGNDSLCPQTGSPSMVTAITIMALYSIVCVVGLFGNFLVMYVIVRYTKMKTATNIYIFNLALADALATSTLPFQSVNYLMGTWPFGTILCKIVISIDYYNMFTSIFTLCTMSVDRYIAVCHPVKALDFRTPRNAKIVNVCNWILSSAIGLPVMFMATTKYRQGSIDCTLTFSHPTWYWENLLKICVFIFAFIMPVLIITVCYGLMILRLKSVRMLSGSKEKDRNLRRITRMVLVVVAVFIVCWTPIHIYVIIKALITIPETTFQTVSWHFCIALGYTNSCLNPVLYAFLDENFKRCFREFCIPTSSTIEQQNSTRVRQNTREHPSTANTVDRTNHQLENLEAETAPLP

First: C[C@@H](c1ccccc1)[C@@H](NC(=O)[C@H](Cc1ccccc1)NC(=O)[C@@H]1CCCN1C(=O)[C@@H](N)Cc1ccc(O)cc1)C(N)=O
Second: C[C@H](c1ccccc1)[C@H](NC(=O)[C@H](Cc1ccccc1)NC(=O)[C@@H]1CCCN1C(=O)[C@@H](N)Cc1ccc(O)cc1)C(N)=O
The Ki of the first is 4.1-fold higher: 107 nM for the first, 26.3 nM for the second. The second binds more tightly here.

For C[C@@H](c1ccccc1)[C@H](NC(=O)[C@H](Cc1ccccc1)NC(=O)[C@@H]1CCCN1C(=O)[C@@H](N)Cc1ccc(O)cc1)C(N)=O, the Ki was 0.8 nM.

target: T1, Mu-type opioid receptor; experiment: Inhibition of DAMGO (Tyr-[D-Ala]-Gly-[NMe-Phe]-Gly-ol) binding torat brain mu opioid receptor

C[C@H](c1ccccc1)[C@@H](NC(=O)[C@H](Cc1ccccc1)NC(=O)[C@@H]1CCCN1C(=O)[C@@H](N)Cc1ccc(O)cc1)C(N)=O gave a Ki of 45.3 nM.

target: Mu-type opioid receptor (Mus musculus, UniProt P42866); experiment: Inhibition of DAMGO (Tyr-[D-Ala]-Gly-[NMe-Phe]-Gly-ol) binding to mouse brain mu opioid receptor
Sequence (P42866 whole entry): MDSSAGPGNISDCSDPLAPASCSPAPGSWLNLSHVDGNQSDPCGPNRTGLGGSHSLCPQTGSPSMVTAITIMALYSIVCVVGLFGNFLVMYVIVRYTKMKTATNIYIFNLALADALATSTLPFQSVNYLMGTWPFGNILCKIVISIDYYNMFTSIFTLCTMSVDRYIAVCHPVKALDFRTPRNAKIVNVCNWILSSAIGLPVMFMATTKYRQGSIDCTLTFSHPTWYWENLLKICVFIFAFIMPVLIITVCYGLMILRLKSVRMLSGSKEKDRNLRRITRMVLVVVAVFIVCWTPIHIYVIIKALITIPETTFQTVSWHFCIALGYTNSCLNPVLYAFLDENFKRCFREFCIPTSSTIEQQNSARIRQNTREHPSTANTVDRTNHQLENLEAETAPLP

Going from NC(=O)[C@H](Cc1ccccc1)NC(=O)[C@H](Cc1ccccc1)NC(=O)[C@@H]1Cc2ccccc2[C@@H]1NC(=O)[C@@H](N)Cc1ccc(O)cc1 to NC(=O)[C@H](Cc1ccccc1)NC(=O)[C@H](Cc1ccccc1)NC(=O)[C@H]1Cc2ccccc2[C@H]1NC(=O)[C@@H](N)Cc1ccc(O)cc1, the Ki falls from 1000 nM to 241 nM (4.1-fold).

Going from NC(=O)[C@H](Cc1ccccc1)NC(=O)[C@@H]1Cc2ccccc2[C@@H]1NC(=O)[C@@H]1CCCN1C(=O)[C@@H](N)Cc1ccc(O)cc1 to NC(=O)[C@H](Cc1ccccc1)NC(=O)[C@H]1Cc2ccccc2[C@H]1NC(=O)[C@@H]1CCCN1C(=O)[C@@H](N)Cc1ccc(O)cc1, the Ki falls from 298 nM to 128 nM (2.3-fold).

species: Rattus norvegicus; experiment: Antinidatory effect was determined in rat; type: functional; parameters: unit not given here

O=C(O)/C=C/CCCC[C@@H]1[C@@H](/C=C/[C@@H](O)COc2cccc(C(F)(F)F)c2)[C@H](O)C[C@@H]1O and O=C(O)/C=C\CCCC[C@@H]1[C@@H](/C=C/[C@@H](O)COc2cccc(C(F)(F)F)c2)[C@H](O)C[C@@H]1O are within 0.2 log units of each other in “Log ED50” value: 0.602 for the first, 0.482 for the second.

Going from CCCCCCC[C@H](O)/C=C/[C@@H]1[C@@H](C/C=C\CCCC(=O)O)[C@@H](O)C[C@H]1O to COCCCCC[C@H](O)/C=C/[C@@H]1[C@@H](C/C=C\CCCC(=O)O)[C@@H](O)C[C@H]1O, the “Log ED50” value falls from 0.669 to 0.398.

CCCCC(C)(C)[C@H](O)/C=C/[C@@H]1[C@@H](C/C=C\CCCC(=O)O)[C@@H](O)C[C@H]1O and CCCC(C)(C)C[C@H](O)/C=C/[C@@H]1[C@@H](C/C=C\CCCC(=O)O)[C@@H](O)C[C@H]1O are within 0.2 log units of each other in “Log ED50” value: 0.081 for the first, 0.279 for the second.

Compared with CCC(C)(C)CC[C@H](O)/C=C/[C@@H]1[C@@H](C/C=C\CCCC(=O)O)[C@@H](O)C[C@H]1O, CCCCOCC[C@H](O)/C=C/[C@@H]1[C@@H](C/C=C\CCCC(=O)O)[C@@H](O)C[C@H]1O is lower in “Log ED50” value: 0.664 for the first, -0.301 for the second.

Compared with CCCOC[C@H](O)/C=C/[C@@H]1[C@@H](C/C=C\CCCC(=O)O)[C@@H](O)C[C@H]1O, CCCCOC[C@H](O)/C=C/[C@@H]1[C@@H](C/C=C\CCCC(=O)O)[C@@H](O)C[C@H]1O is higher in “Log ED50” value: 0.398 for the first, 1 for the second.

Going from O=C(O)CCC/C=C/C[C@@H]1[C@@H](/C=C/[C@@H](O)C2CC2c2ccccc2)[C@H](O)C[C@@H]1O (stereo not given in full) to O=C(O)CCC/C=C\C[C@@H]1[C@@H](/C=C/[C@@H](O)/C=C/c2ccccc2)[C@H](O)C[C@@H]1O, the “Log ED50” value falls from 1.398 to -0.602.

O=C(O)/C=C/C/C=C\C[C@@H]1[C@@H](/C=C/[C@@H](O)COc2cccc(C(F)(F)F)c2)[C@H](O)C[C@@H]1O and O=C(O)/C=C/C/C=C/C[C@@H]1[C@@H](/C=C/[C@@H](O)COc2cccc(Cl)c2)[C@H](O)C[C@@H]1O are the same in “Log ED50” value: 2 for the first, 2 for the second.

First: O=C(O)CC/C=C\CC[C@@H]1[C@@H](/C=C/[C@@H](O)CCc2ccccc2)[C@H](O)C[C@@H]1O
Second: O=C(O)CCC/C=C\C[C@@H]1[C@@H](/C=C/[C@@H](O)C#Cc2ccccc2)[C@H](O)C[C@@H]1O
The “Log ED50” value of the first is higher: 2.301 for the first, 1.699 for the second.

Compared with O=C(O)CCC/C=C\C[C@@H]1[C@@H](/C=C/[C@@H](O)C#Cc2cccs2)[C@H](O)C[C@@H]1O, O=C(O)CCC/C=C\C[C@@H]1[C@@H](/C=C/[C@@H](O)C#Cc2ccco2)[C@H](O)C[C@@H]1O is lower in “Log ED50” value: 0.602 for the first, 0 for the second.

First: CCOCCCC[C@H](O)/C=C/[C@@H]1[C@@H](C/C=C\CCCC(=O)O)[C@@H](O)C[C@H]1O
Second: CCCOCCC[C@H](O)/C=C/[C@@H]1[C@@H](C/C=C\CCCC(=O)O)[C@@H](O)C[C@H]1O
The “Log ED50” value of the first is higher: 0.699 for the first, -0.602 for the second.

Compared with O=C(O)C/C=C/C=C\C[C@@H]1[C@@H](/C=C/[C@@H](O)COc2ccccc2)[C@H](O)C[C@@H]1O, O=C(O)C/C=C/C=C/C[C@@H]1[C@@H](/C=C/[C@@H](O)COc2ccccc2)[C@H](O)C[C@@H]1O is higher in “Log ED50” value: 0 for the first, 1.699 for the second.

Compared with O=C(O)/C=C/C=C/CC[C@@H]1[C@@H](/C=C/[C@@H](O)COc2cccc(Cl)c2)[C@H](O)C[C@@H]1O, O=C(O)/C=C/C/C=C\C[C@@H]1[C@@H](/C=C/[C@@H](O)COc2cccc(Cl)c2)[C@H](O)C[C@@H]1O is higher in “Log ED50” value: 0.777 for the first, 2.301 for the second.

Compared with O=C(O)CCC/C=C\C[C@@H]1[C@@H](/C=C/[C@@H](O)c2ccc(C(F)(F)F)cc2)[C@H](O)C[C@@H]1O, O=C(O)CCC/C=C\C[C@@H]1[C@@H](/C=C/[C@@H](O)COc2ccc(F)cc2)[C@H](O)C[C@@H]1O is higher in “Log ED50” value: 1.699 for the first, 2.301 for the second.

Going from O=C(O)C/C=C/C=C\C[C@@H]1[C@@H](/C=C/[C@@H](O)COc2cccc(Cl)c2)[C@H](O)C[C@@H]1O to O=C(O)/C=C/C=C/C=C/[C@@H]1[C@@H](/C=C/[C@@H](O)COc2cccc(Cl)c2)[C@H](O)C[C@@H]1O, the “Log ED50” value falls from 2.886 to 0.699.

First: CCCCCCOC[C@H](O)/C=C/[C@@H]1[C@@H](C/C=C\CCCC(=O)O)[C@@H](O)C[C@H]1O
Second: CCCCCOC[C@H](O)/C=C/[C@@H]1[C@@H](C/C=C\CCCC(=O)O)[C@@H](O)C[C@H]1O
The “Log ED50” value of the first is lower: 0.699 for the first, 1 for the second.

First: O=C(O)/C=C/C=C/C=C/[C@@H]1[C@@H](/C=C/[C@@H](O)COc2ccccc2)[C@H](O)C[C@@H]1O
Second: O=C(O)/C=C/C/C=C\C[C@@H]1[C@@H](/C=C/[C@@H](O)COc2ccccc2)[C@H](O)C[C@@H]1O
The “Log ED50” value of the first is lower: 0.699 for the first, 2.481 for the second.

COc1cccc(C#C[C@H](O)/C=C/[C@@H]2[C@@H](CCCCCCC(=O)O)[C@@H](O)C[C@H]2O)c1 and O=C(O)CCC/C=C\C[C@@H]1[C@@H](/C=C/[C@@H](O)C#CC2CCCCC2)[C@H](O)C[C@@H]1O are within 0.2 log units of each other in “Log ED50” value: 2 for the first, 1.959 for the second.

With O=C(O)/C=C/C/C=C\C[C@@H]1[C@@H](/C=C/[C@@H](O)COc2ccc(Cl)cc2)[C@H](O)C[C@@H]1O the “Log ED50” value was 2.

target: T1, Mu-type opioid receptor; experiment: Inhibition of DAMGO (Tyr-[D-Ala]-Gly-[NMe-Phe]-Gly-ol) binding to rat brain mu opioid receptor

Compared with Cc1cc(O)cc(C)c1C[C@H](N)C(=O)N1CCC[C@H]1C(=O)N[C@@H](Cc1ccccc1)C(=O)N[C@@H](Cc1ccccc1)C(N)=O, Cc1cc(O)cc(C)c1C[C@H](N)C(=O)N1CCC[C@H]1C(=O)N[C@@H](Cc1ccccc1)C(=O)N[C@H](C(N)=O)[C@@H](C)c1ccccc1 is 1.7-fold higher in Ki: 0.21 nM for the first, 0.35 nM for the second.

Compared with Cc1cc(O)cc(C)c1C[C@H](N)C(=O)N1CCC[C@H]1C(=O)N[C@@H](Cc1ccccc1)C(=O)N[C@@H](Cc1c[nH]c2ccccc12)C(N)=O (H-[Dmt]PFW-NH2), NC(=O)[C@H](Cc1c[nH]c2ccccc12)NC(=O)[C@H](Cc1ccccc1)NC(=O)[C@@H]1CCCN1C(=O)[C@@H](N)Cc1ccc(O)cc1 (H-YPFW-NH2) is 300-fold higher in Ki: 0.014 nM for the first, 4.21 nM for the second.

Going from NC(=O)[C@@H]1CCCN1C(=O)[C@H](Cc1ccccc1)NC(=O)[C@@H]1CCCN1C(=O)[C@@H](N)Cc1ccc(O)cc1 [MORPHICEPTIN] (H-YPFP-NH2) to NC(=O)C(Cc1ccccc1)NC(=O)[C@H](Cc1ccccc1)NC(=O)[C@H]1Cc2ccccc2CN1C(=O)[C@@H](N)Cc1ccc(O)cc1 (single isomer, unassigned), the Ki rises from 80 nM to 167 nM (2.1-fold). The first binds more tightly here.

Work on C[C@@H](NC(=O)[C@@H](N)Cc1ccc(O)cc1)C(=O)N[C@@H](Cc1ccccc1)C(=O)NC(Cc1ccccc1)C(N)=O (single isomer, unassigned) yielded a Ki of 0.31 nM.
